Where two headings read alike, the source gives them in different places. Blank lines part the entries; values can stand above or below the molecule they belong to.
Assays:
[1] = molecular target: biotinylated human Gal-3 (hGal-3) (Homo sapiens, UniProt P17931); assay: Competitive binding assay: biotinylated hGal-3 binding to microplate-adsorbed asialofetuin (ASF), spectrophotometric
Procedure: If not explicitly mentioned otherwise, the inhibition data refer to the binding of biotinylated human Gal-3 (hGal-3).
(§1) Biological Assay Evaluation of Compound Inhibitory Activity (IC50)
The inhibitory activity of compounds is determined in competitive binding assays.
Briefly, compounds are serially diluted in DMSO (working dilutions).
(§2) Plates are incubated for 3 hours at 4° C., then washed with cold assay buffer (3×50 uL), incubated for 1 hour with 25 μL/well of a streptavidin-peroxidase solution (diluted in assay buffer to 80 ng/mL) at 4° C., followed by further washing steps with assay buffer (3×50 uL). Finally, 25 μL/well of ABTS substrate is added.
(§3) The calculated IC50 values may fluctuate depending on the daily assay performance. Fluctuations of this kind are known to those skilled in the art. IC50 values from several measurements are given as mean values.

human Gal-1 (hGal-1) = human Gal-1 (hGal-1) (Homo sapiens, UniProt P09382); assay: Competitive binding assay: biotinylated hGal-1 binding to microplate-adsorbed asialofetuin (ASF), spectrophotometric; settings: hGal-1 binding to asialofetuin; Table 15; R and S epimers of selected Examples also listed; read-out: IC50 (Galectin-1 inhibition)
Procedure: as §1
The inhibitory activity of compounds is determined in competitive binding assays. This spectrophotometric assay measures the binding of biotinylated human Gal-3 (hGal-3) or human Gal-1 (hGal-1), respectively, to a microplate-adsorbed glycoprotein, asialofetuin (ASF) (Proc Natl Acad Sci USA. 2013 Mar. 26; 110(13):5052-7.).
Briefly, compounds are serially diluted in DMSO (working dilutions). ASF-coated 384well plates are supplemented with 22.8 μL/well of biotinylated hGal-3 or hGal-1 in assay buffer (i.e. 300-1000 ng/mL biotinylated hGal-3 or hGal-1) to which 1.2 μL of compound working dilutions are added and mixed.
as §2, §3

[2] = Table 6, hGal-3, read-out: IC50 (Gal-3 inhibition)
[3] = Gal-3 inhibition, Table 4, read-out: IC50
[4] = Table 12, hGal-3, read-out: IC50 (Gal-3 inhibition)
[5] = Gal-3 inhibition, Table 7, read-out: IC50
[6] = Table 11, hGal-3, read-out: IC50 (Gal-3 inhibition)

Sequence of biotinylated human Gal-3 (hGal-3) (P17931 whole entry): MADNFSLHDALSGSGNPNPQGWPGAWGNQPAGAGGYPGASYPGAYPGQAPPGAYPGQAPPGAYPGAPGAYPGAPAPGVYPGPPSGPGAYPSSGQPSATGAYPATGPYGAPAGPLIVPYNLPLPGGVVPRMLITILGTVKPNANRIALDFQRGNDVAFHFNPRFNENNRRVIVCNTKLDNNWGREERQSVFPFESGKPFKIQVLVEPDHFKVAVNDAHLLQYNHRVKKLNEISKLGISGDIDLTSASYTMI
Sequence of human Gal-1 (hGal-1) (P09382 whole entry): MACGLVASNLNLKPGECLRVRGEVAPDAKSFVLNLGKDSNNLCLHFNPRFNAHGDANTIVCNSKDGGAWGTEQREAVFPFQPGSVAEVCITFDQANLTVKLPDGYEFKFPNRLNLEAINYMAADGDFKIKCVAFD

- IC50 [1, 5]: 120 nM
Molecule: CCC(O)C(S[C@@H]1O[C@H](CO)[C@H](O)[C@H](n2cc(-c3cc(F)c(F)c(F)c3)nn2)[C@H]1O)C(=O)N(C)CC1CC1 (stereo partly drawn) [Example 2.60.218., N-(Cyclopropylmethyl)-2-(((2S,3R,4S,5R,6R)-3,5-dihydroxy-6-(hydroxymethyl)-4-(4-(3,4,5-trifluorophenyl)-1H-1,2,3-triazol-1-yl)tetrahydro-2H-pyran-2-yl)thio)-3-hydroxy-N-methylpentanamide]

- IC50 (human Gal-1 (hGal-1)): 200 nM
Molecule: CCC(O)C(S[C@@H]1O[C@H](CO)[C@H](O)[C@H](n2cc(-c3cc(F)c(F)c(F)c3)nn2)[C@H]1O)C(=O)N(C)CC1CC1 (stereo partly shown) [Example 2.60.218]

- IC50 [1, 5]: 220 nM
Molecule: CCN(C)C(=O)C(S[C@@H]1O[C@H](CO)[C@H](O)[C@H](n2cc(-c3cc(F)c(F)c(F)c3)nn2)[C@H]1O)C(O)Cc1ccccc1 (stereo partly drawn) [Example 2.64.203., 2-(((2S,3R,4S,5R,6R)-3,5-Dihydroxy-6-(hydroxymethyl)-4-(4-(3,4,5-trifluorophenyl)-1H-1,2,3-triazol-1-yl)tetrahydro-2H-pyran-2-yl)thio)-N-ethyl-3-hydroxy-N-methyl-4-phenylbutanamide]

- IC50 (human Gal-1 (hGal-1)): 1460 nM
Molecule: CCN(C)C(=O)C(S[C@@H]1O[C@H](CO)[C@H](O)[C@H](n2cc(-c3cc(F)c(F)c(F)c3)nn2)[C@H]1O)C(O)Cc1ccccc1 (stereo partly shown) [Example 2.64.203]

- IC50 [1, 6]: 230 nM
Molecule: Cc1cc(-c2cn([C@H]3[C@@H](O)[C@@H](CO)O[C@@H](S[C@@H](C(=O)N(C)C4CC4)C4(O)CCC(F)(F)CC4)[C@@H]3O)nn2)cnc1F [Example 21.44.221R, (R)-N-Cyclopropyl-2-(4,4-difluoro-1-hydroxycyclohexyl)-2-(((2S,3R,4S,5R,6R)-4-(4-(6-fluoro-5-methylpyridin-3-yl)-1H-1,2,3-triazol-1-yl)-3,5-dihydroxy-6-(hydroxymethyl)tetrahydro-2H-pyran-2-yl)thio)-N-methylacetamide]

- IC50 [1, 6]: 50 nM
Molecule: Cc1cc(-c2cn([C@H]3[C@@H](O)[C@@H](CO)O[C@@H](S[C@H](C(=O)N(C)C4CC4)C4(O)CCC(F)(F)CC4)[C@@H]3O)nn2)cnc1F [Example 21.44.221S, (S)-N-Cyclopropyl-2-(4,4-difluoro-1-hydroxycyclohexyl)-2-(((2S,3R,4S,5R,6R)-4-(4-(6-fluoro-5-methylpyridin-3-yl)-1H-1,2,3-triazol-1-yl)-3,5-dihydroxy-6-(hydroxymethyl)tetrahydro-2H-pyran-2-yl)thio)-N-methylacetamide]

More lines, now with the values behind:

Molecule: CCN(C)C(=O)[C@H](S[C@@H]1O[C@H](CO)[C@H](O)[C@H](n2cc(-c3cc(F)c(F)c(F)c3)nn2)[C@H]1O)C(C)(C)O [Example 2.31.203R., (R)-2-(((2S,3R,4S,5R,6R)-3,5-Dihydroxy-6-(hydroxymethyl)-4-(4-(3,4,5-trifluorophenyl)-1H-1,2,3-triazol-1-yl)tetrahydro-2H-pyran-2-yl)thio)-N-ethyl-3-hydroxy-N,3-dimethylbutanamide]
- IC50 ([1]; Gal-3 inhibition, Table 3, read-out: IC50): 3880 nM

Molecule: CC1CN(C(=O)[C@@H](S[C@@H]2O[C@H](CO)[C@H](O)[C@H](n3cc(-c4cc(F)c(F)c(F)c4)nn3)[C@H]2O)C(C)(C)O)C1 [Example 2.31.205S., (S)-2-(((2S,3R,4S,5R,6R)-3,5-dihydroxy-6-(hydroxymethyl)-4-(4-(3,4,5-trifluorophenyl)-1H-1,2,3-triazol-1-yl)tetrahydro-2H-pyran-2-yl)thio)-3-hydroxy-3-methyl-1-(3-methylazetidin-1-yl)butan-1-one]
- IC50 (human Gal-1 (hGal-1)): 820 nM

Molecule: CC(C)(O)[C@@H](S[C@@H]1O[C@H](CO)[C@H](O)[C@H](n2cc(-c3cc(F)c(F)c(F)c3)nn2)[C@H]1O)C(=O)N1CCCC1 [Example 2.31.211R, (R)-2-(((2S,3R,4S,5R,6R)-3,5-Dihydroxy-6-(hydroxymethyl)-4-(4-(3,4,5-trifluorophenyl)-1H-1,2,3-triazol-1-yl)tetrahydro-2H-pyran-2-yl)thio)-3-hydroxy-3-methyl-1-(pyrrolidin-1-yl)butan-1-one]
- IC50 (human Gal-1 (hGal-1)): 2150 nM

Molecule: CC(C)(O)[C@@H](S[C@@H]1O[C@H](CO)[C@H](O)[C@H](n2cc(-c3cc(F)c(F)c(F)c3)nn2)[C@H]1O)C(=O)N1CCCC1 [Example 2.31.211R., (R)-2-(((2S,3R,4S,5R,6R)-3,5-Dihydroxy-6-(hydroxymethyl)-4-(4-(3,4,5-trifluorophenyl)-1H-1,2,3-triazol-1-yl)tetrahydro-2H-pyran-2-yl)thio)-3-hydroxy-3-methyl-1-(pyrrolidin-1-yl)butan-1-one]
- IC50 [1, 2]: 310 nM

Molecule: CC(C)(O)[C@H](S[C@@H]1O[C@H](CO)[C@H](O)[C@H](n2cc(-c3cc(F)c(F)c(F)c3)nn2)[C@H]1O)C(=O)N1CCCC1 [Example 2.31.211S, (S)-2-(((2S,3R,4S,5R,6R)-3,5-Dihydroxy-6-(hydroxymethyl)-4-(4-(3,4,5-trifluorophenyl)-1H-1,2,3-triazol-1-yl)tetrahydro-2H-pyran-2-yl)thio)-3-hydroxy-3-methyl-1-(pyrrolidin-1-yl)butan-1-one]
- IC50 [1, 2]: 80 nM

Molecule: CC(C)(O)[C@H](S[C@@H]1O[C@H](CO)[C@H](O)[C@H](n2cc(-c3cc(F)c(F)c(F)c3)nn2)[C@H]1O)C(=O)N1CCCC1 [Example 2.31.211S., (S)-2-(((2S,3R,4S,5R,6R)-3,5-Dihydroxy-6-(hydroxymethyl)-4-(4-(3,4,5-trifluorophenyl)-1H-1,2,3-triazol-1-yl)tetrahydro-2H-pyran-2-yl)thio)-3-hydroxy-3-methyl-1-(pyrrolidin-1-yl)butan-1-one]
- IC50 (human Gal-1 (hGal-1)): 530 nM

Molecule: O=C([C@H](S[C@@H]1O[C@H](CO)[C@H](O)[C@H](n2cc(-c3cc(F)c(F)c(F)c3)nn2)[C@H]1O)C1(O)CCOCC1)N1CCc2ccccc21 [Example 2.41.209R., (R)-2-(((2S,3R,4S,5R,6R)-3,5-Dihydroxy-6-(hydroxymethyl)-4-(4-(3,4,5-trifluorophenyl)-1H-1,2,3-triazol-1-yl)tetrahydro-2H-pyran-2-yl)thio)-2-(4-hydroxytetrahydro-2H-pyran-4-yl)-1-(indolin-1-yl)ethan-1-one]
- IC50 [1, 3]: 1310 nM

Molecule: CN(CCC1CCOCC1)C(=O)[C@H](S[C@@H]1O[C@H](CO)[C@H](O)[C@H](n2cc(-c3cc(F)c(F)c(F)c3)nn2)[C@H]1O)C1(O)CCOCC1 [Example 2.41.216R., (R)-2-(((2S,3R,4S,5R,6R)-3,5-Dihydroxy-6-(hydroxymethyl)-4-(4-(3,4,5-trifluorophenyl)-1H-1,2,3-triazol-1-yl)tetrahydro-2H-pyran-2-yl)thio)-2-(4-hydroxytetrahydro-2H-pyran-4-yl)-N-methyl-N-(2-(tetrahydro-2H-pyran-4-yl)ethyl)acetamide]
- IC50 [1, 3]: 1530 nM

Molecule: CO[C@@H]1[C@@H](n2cc(-c3cc(F)c(F)c(F)c3)nn2)[C@@H](O)[C@@H](CO)O[C@H]1SC(C(=O)N(C)C1CC(F)(F)C1)C1(O)CCC(F)(F)CC1 (stereo partly drawn) [Example 2.44.237.I., 2-(4,4-Difluoro-1-hydroxycyclohexyl)-N-(3,3-difluorocyclobutyl)-2-(((2S,3R,4S,5R,6R)-5-hydroxy-6-(hydroxymethyl)-3-methoxy-4-(4-(3,4,5-trifluorophenyl)-1H-1,2,3-triazol-1-yl)tetrahydro-2H-pyran-2-yl)thio)-N-methylacetamide]
- IC50 [1, 4]: 90 nM

Molecule: CCN(C(=O)C(S[C@@H]1O[C@H](CO)[C@H](O)[C@H](n2cc(-c3cc(F)c(F)c(F)c3)nn2)[C@H]1OC)C1(O)CCC(F)(F)CC1)C1CC1 (stereo partly shown) [Example 2.44.238.I.]
- IC50 ([1]; Table 10, hGal-3, read-out: IC50 (Gal-3 inhibition)): 40 nM

Molecule: CO[C@@H]1[C@@H](n2cc(-c3cc(F)c(F)c(F)c3)nn2)[C@@H](O)[C@@H](CO)O[C@H]1SC(C(=O)NC1CCC(C)(C)CC1)C1(O)CCC(F)(F)CC1 (stereo partly drawn) [Example 2.44.255.I, 2-(4,4-Difluoro-1-hydroxycyclohexyl)-N-(4,4-dimethylcyclohexyl)-2-(((2S,3R,4S,5R,6R)-5-hydroxy-6-(hydroxymethyl)-3-methoxy-4-(4-(3,4,5-trifluorophenyl)-1H-1,2,3-triazol-1-yl)tetrahydro-2H-pyran-2-yl)thio)acetamide]
- IC50 [1, 4]: 390 nM

Molecule: CO[C@@H]1[C@@H](n2cc(-c3cc(F)c(F)c(F)c3)nn2)[C@@H](O)[C@@H](CO)O[C@H]1SC(C(=O)NC1CCC(C)(C)CC1)C1(O)CCC(F)(F)CC1 (stereo partly drawn) [Example 2.44.255.I., 2-(4,4-Difluoro-1-hydroxycyclohexyl)-N-(4,4-dimethylcyclohexyl)-2-(((2S,3R,4S,5R,6R)-5-hydroxy-6-(hydroxymethyl)-3-methoxy-4-(4-(3,4,5-trifluorophenyl)-1H-1,2,3-triazol-1-yl)tetrahydro-2H-pyran-2-yl)thio)acetamide]
- IC50 (human Gal-1 (hGal-1)): 830 nM

Molecule: (R)-2-(4,4-Difluoro-1-hydroxycyclohexyl)-2-(((2S,3R,4S,5R,6R)-3,5-dihydroxy-6-(hydroxymethyl)-4-(4-(3,4,5-trifluorophenyl)-1H-1,2,3-triazol-1-yl)tetrahydro-2H-pyran-2-yl)thio)-1-(piperidin-1-yl)ethan-1-one [Example 2.44.208R.]
- IC50 ([1]; Gal-3 inhibition, Table 5, read-out: IC50): 3360 nM
